The assay addresses Beta-3 Adrenergic Receptor (Homo sapiens (Human), UniProt P13945). In words: HTRF cAMP antagonist assay (IC50 determination). The note with it: CHO-K1 cells stably expressing recombinant receptor; antagonism of isoproterenol at EC90; cAMP readout. The format is cell-based. In short, it runs like this:
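In this functional readout, recombinant CHO-K1 cells received compound, then isoproterenol at its EC90. After 1 h at room temperature, cAMP levels were determined by HTRF using an on-plate standard curve, and IC50 values were fitted.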

Sequence of Beta-3 Adrenergic Receptor (P13945 whole entry, species assumed): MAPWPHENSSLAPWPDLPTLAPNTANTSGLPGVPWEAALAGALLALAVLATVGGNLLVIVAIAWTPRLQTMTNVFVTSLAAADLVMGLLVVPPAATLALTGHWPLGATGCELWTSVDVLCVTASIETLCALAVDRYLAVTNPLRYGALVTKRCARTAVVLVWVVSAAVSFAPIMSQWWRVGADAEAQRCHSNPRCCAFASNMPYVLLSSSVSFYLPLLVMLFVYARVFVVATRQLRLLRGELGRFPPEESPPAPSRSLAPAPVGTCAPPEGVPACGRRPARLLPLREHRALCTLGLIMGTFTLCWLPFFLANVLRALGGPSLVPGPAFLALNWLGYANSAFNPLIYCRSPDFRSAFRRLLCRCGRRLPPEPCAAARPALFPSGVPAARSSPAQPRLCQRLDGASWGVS

`NCCc1ccc(-c2cccc(S(=O)(=O)N3CCC4(CC3)C[C@@H](NC[C@H](O)COc3cccc(S(=O)(=O)C5(CO)CC5)c3)CO4)c2)cc1` [Compound 212, (S)-1-((R)-8-(4′-(2-aminoethyl)biphenyl-3-ylsulfonyl)-1-oxa-8-azaspiro[4.5]decan-3-ylamino)-3-(3-(1-(hydroxymethyl)cyclopropylsulfonyl)phenoxy)propan-2-ol]: the IC50 (as a rule, the concentration that inhibits the measured activity by half) was found to be 26 nM. The result for `C[C@H]1CN(C)c2cc(S(=O)(=O)N3CCC4(CC3)C[C@H](NC[C@H](O)COc3cccc(S(=O)(=O)C5CC5)c3)CO4)cnc2O1` [Compound 277, (S)-1-(3-(cyclopropylsulfonyl)phenoxy)-3-((S)-8-((S)-1,3-dimethyl-2,3-dihydro-1H-pyrido[2,3-b][1,4]oxazin-7-ylsulfonyl)-1-oxa-8-azaspiro[4.5]decan-3-ylamino)propan-2-ol] reads 16.5 nM; that for `CCOc1ccc(-c2ccc(CN)cc2)cc1S(=O)(=O)N1CCC2(CC1)C[C@H](NC[C@H](O)COc1cccc(S(=O)(=O)C3CC3)c1)CO2` [Compound 160, (S)-1-((S)-8-(4′-(aminomethyl)-4-ethoxybiphenyl-3-ylsulfonyl)-1-oxa-8-azaspiro[4.5]decan-3-ylamino)-3-(3-(cyclopropylsulfonyl)phenoxy)propan-2-ol], 11.6 nM.

For the compound `O=S(=O)(c1cccc(OC[C@@H](O)CN[C@H]2COC3(CCN(S(=O)(=O)c4c[nH]c5ccccc45)CC3)C2)c1)C1CC1` [Compound 308, (S)-1-((R)-8-(1H-indol-3-ylsulfonyl)-1-oxa-8-azaspiro[4.5]decan-3-ylamino)-3-(3-(cyclopropylsulfonyl)phenoxy)propan-2-ol], the IC50 turned out to be 34.5 nM. For `O=C(O)CS(=O)(=O)c1cccc(OC[C@@H](O)CN[C@H]2COC3(CCN(S(=O)(=O)c4cnc5ccccc5c4)CC3)C2)c1` [Compound 183, 2-(3-((S)-2-hydroxy-3-((R)-8-(quinolin-3-ylsulfonyl)-1-oxa-8-azaspiro[4.5]decan-3-ylamino)propoxy)phenylsulfonyl)acetic acid], the IC50 turned out to be 1600 nM. As to `NCCCNCc1ccc(-c2cccc(S(=O)(=O)N3CCC4(CC3)C[C@@H](NC[C@H](O)COc3cccc(S(=O)(=O)C5(CO)CC5)c3)CO4)c2)cc1` [Compound 271, (S)-1-((R)-8-(4′-((3-aminopropylamino)methyl)biphenyl-3-ylsulfonyl)-1-oxa-8-azaspiro[4.5]decan-3-ylamino)-3-(3-(1-(hydroxymethyl)cyclopropylsulfonyl)phenoxy)propan-2-ol], the IC50 stood at 206 nM.

With `CC(C)S(=O)(=O)c1cccc(OC[C@@H](O)CN[C@H]2COC3(CCN(S(=O)(=O)c4ccc5ncccc5c4)CC3)C2)c1` [Compound 113, (S)-1-(3-(isopropylsulfonyl)phenoxy)-3-((R)-8-(quinolin-6-ylsulfonyl)-1-oxa-8-azaspiro[4.5]decan-3-ylamino)propan-2-ol], the IC50 turned out to be 26.8 nM. The result for `CC(C)Oc1ccc(-c2ccc(CN)cc2)cc1S(=O)(=O)N1CCC2(CC1)C[C@@H](NC[C@H](O)COc1cccc(S(=O)(=O)C3CC3)c1)CO2` [Compound 171, (S)-1-((R)-8-(4′-(aminomethyl)-4-isopropoxybiphenyl-3-ylsulfonyl)-1-oxa-8-azaspiro[4.5]decan-3-ylamino)-3-(3-(cyclopropylsulfonyl)phenoxy)propan-2-ol] reads 25 nM; that for `O=S(=O)(c1cccc(OC[C@@H](O)CN[C@H]2COC3(CCN(S(=O)(=O)c4ccc5ncccc5c4)CC3)C2)c1)C1CC1` [Compound 143, (S)-1-(3-(cyclopropylsulfonyl)phenoxy)-3-((R)-8-(quinolin-6-ylsulfonyl)-1-oxa-8-azaspiro[4.5]decan-3-ylamino)propan-2-ol], 13.2 nM.

Consider `O=S(=O)(CCCO)c1cccc(OC[C@@H](O)CN[C@H]2COC3(CCN(S(=O)(=O)c4cnc5ccccc5c4)CC3)C2)c1` [Compound 135, 3-(3-((S)-2-hydroxy-3-((R)-8-(quinolin-3-ylsulfonyl)-1-oxa-8-azaspiro[4.5]decan-3-ylamino)propoxy)phenylsulfonyl)propan-1-ol], for which the IC50 stood at 88.8 nM. To `CCn1cc(S(=O)(=O)N2CCC3(CC2)C[C@H](NC[C@H](O)COc2cccc(S(=O)(=O)C4(CO)CC4)c2)CO3)c(=O)c2ccccc21` [Compound 293, 1-ethyl-3-((S)-3-((S)-2-hydroxy-3-(3-(1-(hydroxymethyl)cyclopropylsulfonyl)phenoxy)propylamino)-1-oxa-8-azaspiro[4.5]decan-8-ylsulfonyl)quinolin-4(1H)-one] belongs 130 nM; to `CS(=O)(=O)c1ccc(OC[C@@H](O)CNC2COC3(CCN(S(=O)(=O)c4ccc5ccccc5c4)CC3)C2)cc1` (stereo partly drawn) [Compound 334, (2S)-1-(4-(methylsulfonyl)phenoxy)-3-(8-(naphthalen-2-ylsulfonyl)-1-oxa-8-azaspiro[4.5]decan-3-ylamino)propan-2-ol], 79.9 nM.

Turning to `CCOc1ccc(-c2ccc(CN)cc2)cc1S(=O)(=O)N1CCC2(CC1)C[C@H](NC[C@H](O)COc1cccc(S(=O)(=O)C(C)C)c1)CO2` [Compound 232, (S)-1-((S)-8-(4′-(aminomethyl)-4-ethoxybiphenyl-3-ylsulfonyl)-1-oxa-8-azaspiro[4.5]decan-3-ylamino)-3-(3-(isopropylsulfonyl)phenoxy)propan-2-ol], the IC50 was 16.6 nM. The result for `O=S(=O)(c1cccc(-c2ccc(CN3CCOCC3)cc2)c1)N1CCC2(CC1)C[C@H](NC[C@H](O)COc1cccc(S(=O)(=O)C3(CO)CC3)c1)CO2` [Compound 246, (S)-1-(3-(1-(hydroxymethyl)cyclopropylsulfonyl)phenoxy)-3-((S)-8-(4′-(morpholinomethyl)biphenyl-3-ylsulfonyl)-1-oxa-8-azaspiro[4.5]decan-3-ylamino)propan-2-ol] reads 48.3 nM; that for `CCOc1ccc(-c2ccc(CCN)cc2)cc1S(=O)(=O)N1CCC2(CC1)C[C@H](NC[C@H](O)COc1cccc(S(=O)(=O)C3(CO)CC3)c1)CO2` [Compound 214, (S)-1-((S)-8-(4′-(2-aminoethyl)-4-ethoxybiphenyl-3-ylsulfonyl)-1-oxa-8-azaspiro[4.5]decan-3-ylamino)-3-(3-(1-(hydroxymethyl)cyclopropylsulfonyl)phenoxy)propan-2-ol], 36.7 nM. Consider `CC(C)CNCc1ccc(-c2cccc(S(=O)(=O)N3CCC4(CC3)CC(NC[C@H](O)COc3cccc(S(C)(=O)=O)c3)CO4)c2)cc1` (stereo partly drawn) [Compound 81, (2S)-1-(8-(4′-((isobutylamino)methyl)biphenyl-3-ylsulfonyl)-1-oxa-8-azaspiro[4.5]decan-3-ylamino)-3-(3-(methylsulfonyl)phenoxy)propan-2-ol], for which the IC50 amounted to 27.8 nM. The result for `CS(=O)(=O)c1cccc(OC[C@@H](O)CN[C@H]2COC3(CCN(S(=O)(=O)c4cnc5ccccc5c4)CC3)C2)c1` [Compound 118, (S)-1-(3-(methylsulfonyl)phenoxy)-3-((R)-8-(quinolin-3-ylsulfonyl)-1-oxa-8-azaspiro[4.5]decan-3-ylamino)propan-2-ol] reads 10.4 nM. Turning to `NCc1ccc(-c2cc(S(=O)(=O)N3CCC4(CC3)C[C@H](NC[C@H](O)COc3cccc(S(=O)(=O)C5(CO)CC5)c3)CO4)ccc2F)cc1` [Compound 218, (S)-1-((S)-8-(4′-(aminomethyl)-6-fluorobiphenyl-3-ylsulfonyl)-1-oxa-8-azaspiro[4.5]decan-3-ylamino)-3-(3-(1-(hydroxymethyl)cyclopropylsulfonyl)phenoxy)propan-2-ol], the half-inhibitory concentration (IC50) came to 29.3 nM. The result for `O=S(=O)(CC1CC1)c1cccc(OC[C@@H](O)CNC2COC3(CCN(S(=O)(=O)c4ccc5ccccc5c4)CC3)C2)c1` (stereo partly drawn) [Compound 7, (2S)-1-(3-(cyclopropylmethylsulfonyl)phenoxy)-3-(8-(naphthalen-2-ylsulfonyl)-1-oxa-8-azaspiro[4.5]decan-3-ylamino)propan-2-ol] reads 34.2 nM.

For `CS(=O)(=O)c1cccc(OC[C@@H](O)CNC2COC3(CCN(S(=O)(=O)c4cccc(-c5ccc(CNCC(F)(F)F)cc5)c4)CC3)C2)c1` (stereo partly drawn) [Compound 82, (2S)-1-(3-(methylsulfonyl)phenoxy)-3-(8-(4′-((2,2,2-trifluoroethylamino)methyl)biphenyl-3-ylsulfonyl)-1-oxa-8-azaspiro[4.5]decan-3-ylamino)propan-2-ol], the IC50 came out at 43.2 nM.

For the compound `CC(F)S(=O)(=O)c1cccc(OC[C@@H](O)CN[C@H]2COC3(CCN(S(=O)(=O)c4ccc5ncccc5c4)CC3)C2)c1` (stereo partly drawn) [Compound 234, (2S)-1-(3-(1-fluoroethylsulfonyl)phenoxy)-3-((R)-8-(quinolin-6-ylsulfonyl)-1-oxa-8-azaspiro[4.5]decan-3-ylamino)propan-2-ol], the IC50 is 10.2 nM. To `O=S(=O)(c1cccc(OC[C@@H](O)CNC2COC3(CCN(S(=O)(=O)c4ccc5ccccc5c4)CC3)C2)c1)C1COC1` (stereo partly drawn) [Compound 24, (2S)-1-(8-(naphthalen-2-ylsulfonyl)-1-oxa-8-azaspiro[4.5]decan-3-ylamino)-3-(3-(oxetan-3-ylsulfonyl)phenoxy)propan-2-ol] belongs 23.6 nM; to `CS(=O)(=O)c1cccc(OC[C@@H](O)CN[C@H]2COC3(CCN(S(=O)(=O)c4ccc5ncccc5c4)CC3)C2)c1` [Compound 111, (S)-1-(3-(methylsulfonyl)phenoxy)-3-((R)-8-(quinolin-6-ylsulfonyl)-1-oxa-8-azaspiro[4.5]decan-3-ylamino)propan-2-ol], 31.1 nM. The result for `CCOc1ccc(-c2ccc(C(C)(C)CN)cc2)cc1S(=O)(=O)N1CCC2(CC1)C[C@@H](NC[C@H](O)COc1cccc(S(=O)(=O)C3(CO)CC3)c1)CO2` [Compound 174, (S)-1-((R)-8-(4′-(1-amino-2-methylpropan-2-yl)-4-ethoxybiphenyl-3-ylsulfonyl)-1-oxa-8-azaspiro[4.5]decan-3-ylamino)-3-(3-(1-(hydroxymethyl)cyclopropylsulfonyl)phenoxy)propan-2-ol] reads 699 nM.

These data come from patent publication US10927123B2, “Modulators of the beta-3 adrenergic receptor useful for the treatment or prevention of disorders related thereto” (Arena Pharmaceuticals, Inc., priority 2016, dated 2021).
